Results: US10077261B2, “Imidazolin-5-one derivative useful as FASN inhibitors for the treatment of cancer” (Janssen Pharmaceutica NV, priority 2012, dated 2018)

Experiments:
[1] = target: T1, hFASN enzyme (full length) (Homo sapiens, UniProt P49327); assay: Fatty Acid Synthase (FASN) inhibition scintillation proximity assay; format: biochemical; conditions: for inhibition at 10 µM: read-out: Human FASN % inhibition @ 10 μM, 10 μM test compound; for IC50: read-out: Human FASN pIC50 (converted)
T1 construct: 10 μL hFASN enzyme (full length, 300 ng, purified in house); made in house
T1 sequence (P49327 whole entry): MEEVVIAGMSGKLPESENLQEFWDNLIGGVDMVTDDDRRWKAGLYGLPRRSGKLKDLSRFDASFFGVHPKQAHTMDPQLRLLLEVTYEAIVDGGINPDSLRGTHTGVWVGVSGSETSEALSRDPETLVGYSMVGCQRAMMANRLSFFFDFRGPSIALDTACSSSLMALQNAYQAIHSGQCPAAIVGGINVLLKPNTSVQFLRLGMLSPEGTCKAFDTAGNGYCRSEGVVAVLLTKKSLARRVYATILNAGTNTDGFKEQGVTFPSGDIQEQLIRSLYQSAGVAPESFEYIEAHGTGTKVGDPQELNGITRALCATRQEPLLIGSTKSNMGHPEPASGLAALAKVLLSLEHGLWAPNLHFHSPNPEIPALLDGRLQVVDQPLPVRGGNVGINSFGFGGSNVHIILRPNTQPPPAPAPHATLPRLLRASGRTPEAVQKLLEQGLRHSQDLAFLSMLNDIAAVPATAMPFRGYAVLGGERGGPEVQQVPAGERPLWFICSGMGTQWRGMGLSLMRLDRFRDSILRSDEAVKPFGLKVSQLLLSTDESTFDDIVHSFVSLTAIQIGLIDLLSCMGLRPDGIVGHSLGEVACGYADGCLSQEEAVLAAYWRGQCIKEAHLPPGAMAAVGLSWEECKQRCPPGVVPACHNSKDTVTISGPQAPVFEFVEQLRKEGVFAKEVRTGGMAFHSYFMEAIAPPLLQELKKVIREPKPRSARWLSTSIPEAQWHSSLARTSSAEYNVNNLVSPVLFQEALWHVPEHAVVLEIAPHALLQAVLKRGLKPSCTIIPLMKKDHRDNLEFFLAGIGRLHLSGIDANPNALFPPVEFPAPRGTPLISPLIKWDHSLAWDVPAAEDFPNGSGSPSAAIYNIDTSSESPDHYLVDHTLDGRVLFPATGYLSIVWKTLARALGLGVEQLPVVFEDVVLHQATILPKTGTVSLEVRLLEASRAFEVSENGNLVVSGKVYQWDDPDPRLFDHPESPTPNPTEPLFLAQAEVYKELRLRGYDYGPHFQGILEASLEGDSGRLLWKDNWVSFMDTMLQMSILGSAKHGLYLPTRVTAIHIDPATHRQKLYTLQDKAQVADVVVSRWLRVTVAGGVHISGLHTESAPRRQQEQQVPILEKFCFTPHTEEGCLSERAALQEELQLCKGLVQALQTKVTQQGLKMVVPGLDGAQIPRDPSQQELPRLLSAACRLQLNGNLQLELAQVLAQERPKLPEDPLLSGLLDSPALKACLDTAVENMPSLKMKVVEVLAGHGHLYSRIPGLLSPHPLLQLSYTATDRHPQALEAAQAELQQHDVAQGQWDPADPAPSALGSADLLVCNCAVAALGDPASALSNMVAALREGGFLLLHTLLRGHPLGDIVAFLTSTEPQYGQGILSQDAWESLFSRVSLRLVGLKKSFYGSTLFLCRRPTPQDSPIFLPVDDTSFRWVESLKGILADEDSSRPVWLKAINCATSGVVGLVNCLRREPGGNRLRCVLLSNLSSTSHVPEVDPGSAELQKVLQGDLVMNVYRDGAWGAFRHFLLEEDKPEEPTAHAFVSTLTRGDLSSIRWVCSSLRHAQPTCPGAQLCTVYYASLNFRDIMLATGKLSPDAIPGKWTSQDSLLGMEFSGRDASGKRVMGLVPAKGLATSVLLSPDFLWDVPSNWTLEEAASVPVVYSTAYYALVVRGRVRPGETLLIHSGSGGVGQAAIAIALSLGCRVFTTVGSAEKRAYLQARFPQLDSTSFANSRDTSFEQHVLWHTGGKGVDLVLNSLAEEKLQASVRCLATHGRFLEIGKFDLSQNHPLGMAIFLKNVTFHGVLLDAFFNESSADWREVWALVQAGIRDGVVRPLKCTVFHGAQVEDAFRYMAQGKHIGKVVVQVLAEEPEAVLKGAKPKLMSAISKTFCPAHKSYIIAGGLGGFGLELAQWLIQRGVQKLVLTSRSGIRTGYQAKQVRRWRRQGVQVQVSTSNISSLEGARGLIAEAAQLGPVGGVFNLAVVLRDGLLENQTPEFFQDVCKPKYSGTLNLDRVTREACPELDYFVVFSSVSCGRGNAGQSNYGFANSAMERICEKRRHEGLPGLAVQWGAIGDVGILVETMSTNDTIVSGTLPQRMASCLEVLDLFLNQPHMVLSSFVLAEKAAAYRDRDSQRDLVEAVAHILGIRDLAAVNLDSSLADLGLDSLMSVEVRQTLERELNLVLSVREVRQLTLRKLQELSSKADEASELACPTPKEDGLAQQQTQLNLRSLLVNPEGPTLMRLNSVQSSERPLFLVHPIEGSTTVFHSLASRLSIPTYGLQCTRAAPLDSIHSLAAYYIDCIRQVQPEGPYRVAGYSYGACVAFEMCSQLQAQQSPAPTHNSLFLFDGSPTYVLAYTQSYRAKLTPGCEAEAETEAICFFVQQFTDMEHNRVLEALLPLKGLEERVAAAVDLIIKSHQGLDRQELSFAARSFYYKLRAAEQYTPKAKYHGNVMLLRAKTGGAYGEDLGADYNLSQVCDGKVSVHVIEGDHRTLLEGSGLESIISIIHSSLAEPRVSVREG
Outline: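 Full-length in-house purified enzyme (300 ng) was tested in 100 mM KH2PO4 pH 7.5, 1 mM DTT with ³H-acetyl-CoA and malonyl-CoA as substrates; compounds ranged 0.01–30 μM. Reactions were stopped with streptavidin imaging beads, read by LEADseeker at 610 nm, and fitted to a 4-parameter logistic curve.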

A2780 ovarian cells [2] = assay: A2780 ovarian cell proliferation assay in lipid reduced medium, with palmitate (MTT); format: cell-based; conditions: Homo sapiens, A2780, 96 h; read-out: pIC50 A2780 Ovarian Cell, With Palmitate (converted)
Outline: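 Seeded cells were switched next day to lipid-reduced serum, exposed to compound and 25 μM palmitate complexed with fatty-acid-free BSA, and incubated 96 h. Proliferation was then determined by MTT absorbance at 544 nm, with a best-fit curve of signal against concentration.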

[3] = target: Fatty Acid Synthase Keto-reductase Domain (FASN KR) (Homo sapiens, UniProt P49327); assay: Fatty Acid Synthase keto-reductase domain (FASN KR) inhibition, NADPH oxidation at 340 nm
Sequence of Fatty Acid Synthase Keto-reductase Domain (FASN KR) (P49327 whole entry, the tested form may be a part): as the sequence (P49327 whole entry) above
Experimental: After 20 minutes incubation at room temperature the plate was measured again (T2).
The decrease in absorbance was calculated as (Absorbance before incubation T1)−(Absorbance following incubation T2).
A plot of Controlmin versus test compound concentration was fitted to a 4-parameter logistic curve using a non-linear least squares regression method.

A2780 ovarian cells [4] = assay: A2780 ovarian cell proliferation assay in lipid reduced medium, without palmitate (MTT); format: cell-based; conditions: Homo sapiens, A2780, 96 h; read-out: pIC50 A2780 Ovarian Cell, Without Palmitate (converted)

| SMILES | inhibition at 10 µM [1] [%] | IC50 [1] [nM] | IC50 (A2780 ovarian cells [2]) [nM] | IC50 [3] [nM] | IC50 (A2780 ovarian cells [4]) [nM] |
| --- | --- | --- | --- | --- | --- |
| O=C(C1CC1)N1CC[C@H](CN2C(=O)C3(CC3)N=C2c2ccc(-c3ccc4[nH]ccc4c3)cc2)C1 [compound 210, (S)-5-(4-(1H-indol-5-yl)phenyl)-6-((1-(cy7clopropanecarbonyl)pyrrolidin-3-yl)methyl)-4,6-diazaspiro[2.4]hept-4-en-7-one] | 103 | 89.1 | > 10000 | 170 | 52.5 |
| O=C(C1CC1)N1CC[C@H](CN2C(=O)C3(CC3)N=C2c2ccc(-c3ccc4sccc4c3)cc2)C1 [compound 211, (S)-5-(4-(benzo[b]thiophen-5-yl)phenyl)-6-((1-(cyclopropanecarbonyl)pyrrolidin-3-yl)methyl)-4,6-diazaspiro[2.4]hept-4-en-7-one] | 107 | 85.1 | > 10000 | 200 | ~708 |
| O=C(C1CC1)N1CC[C@@H](CN2C(=O)C3(CC3)N=C2c2ccc(-c3ccc(-c4ccncc4)cc3)cc2)C1 [compound 235, (R)-6-((1-(cyclopropanecarbonyl)pyrrolidin-3-yl)methyl)-5-(4′-(pyridin-4-yl)-[1,1′-biphenyl]-4-yl)-4,6-diazaspiro[2.4]hept-4-en-7-one] | 111 | 23.4 | > 10000 | 45.7 | 10 |
| Cc1cc(-c2ccc3occc3c2)ccc1C1=NC2(CC2)C(=O)N1C[C@@H]1CCN(C(=O)C2CC2)C1 [compound 278, (R)-5-(4-(benzofuran-5-yl)-2-methylphenyl)-6-((1-(cyclopropanecarbonyl)pyrrolidin-3-yl)methyl)-4,6-diazaspiro[2.4]hept-4-en-7-one] | 113 | 25.7 | > 10000 | 69.2 | ~692 |
| Cc1cc(-c2ccc3sccc3c2)ccc1C1=NC2(CC2)C(=O)N1C[C@@H]1CCN(C(=O)C2CC2)C1 [compound 279, (R)-5-(4-(benzo[d]thiophen-5-yl)-2-methylphenyl)-6-((1-(cyclopropanecarbonyl)pyrrolidin-3-yl)methyl)-4,6-diazaspiro[2.4]hept-4-en-7-one] | 107 | 28.2 | > 10000 | 44.7 | 407 |
| Cc1cc2cc(-c3ccc(C4=NC5(CC5)C(=O)N4C[C@@H]4CCN(C(=O)C5CC5)C4)c(C)c3)ccc2o1 [compound 280, (R)-6-((1-(cyclopropanecarbonyl)pyrrolidin-3-yl)methyl)-5-(2-methyl-4-(2-methylbenzofuran-5-yl)phenyl)-4,6-diazaspiro[2.4]hept-4-en-7-one] | 109 | 30.2 | > 10000 | 126 | ~1950 |
| Cc1cc2cc(-c3ccc(C4=NC5(CC5)C(=O)N4C[C@@H]4CCN(C(=O)C5CC5)C4)c(C)c3)ccc2s1 [compound 281, (R)-6-((1-(cyclopropanecarbonyl)pyrrolidin-3-yl)methyl)-5-(2-methyl-4-(2-methylbenzo[b]thiophen-5-yl)phenyl)-4,6-diazaspiro[2.4]hept-4-en-7-one] | 114 | 44.7 | > 6170 | 110 | ~813 |
| Cc1cc(-c2ccc3sc(C)c(C)c3c2)ccc1C1=NC2(CC2)C(=O)N1C[C@@H]1CCN(C(=O)C2CC2)C1 [compound 283, (R)-6-((1-(cyclopropanecarbonyl)pyrrolidin-3-yl)methyl)-5-(4-(2,3-dimethylbenzo[b]thiophen-5-yl)-2-methylphenyl)-4,6-diazaspiro[2.4]hept-4-en-7-one] | 112 | 41.7 | > 10000 | 93.3 | ~1860 |
| Cc1cc(-c2ccc3occc3c2)ccc1C1=NC2(CC2)C(=O)N1CC1CN(C(=O)C2CC2)C1 [compound 287, 5-(4-(benzofuran-5-yl)-2-methylphenyl)-6-((1-(cyclopropanecarbonyl)azetidin-3-yl)methyl)-4,6-diazaspiro[2.4]hept-4-en-7-one] | 110 | 43.7 | > 10000 | 166 | ~282 |
| Cc1cc2cc(-c3ccc(C4=NC5(CC5)C(=O)N4CC4CN(C(=O)C5CC5)C4)c(C)c3)ccc2o1 [compound 289, 6-((1-(cyclopropanecarbonyl)azetidin-3-yl)methyl)-5-(2-methyl-4-(2-methylbenzofuran-5-yl)phenyl)-4,6-diazspiro[2.4]hept-4-en-7-one] | 102 | 97.7 | > 10000 | 324 | 1120 |

More lines, now with the values ahead:

| inhibition at 10 µM [1] [%] | IC50 [1] [nM] | IC50 (A2780 ovarian cells [2]) [nM] | IC50 [3] [nM] | IC50 (A2780 ovarian cells [4]) [nM] | SMILES |
| --- | --- | --- | --- | --- | --- |
| 103 | 219 | > 10000 | 759 | ~3240 | Cc1cc2cc(-c3ccc(C4=NC5(CC5)C(=O)N4C[C@@H]4CCN(C(=O)C5CC5)C4)cc3F)ccc2o1 [compound 387, 6-{[(3R)-1-(Cyclopropylcarbonyl)pyrrolidin-3-yl]methyl}-5-[3-fluoro-4-(2-methyl-1-benzofuran-5-yl)phenyl]-4,6-diazaspiro[2.4]hept-4-en-7-one] |
| 99 | 355 | > 10000 | 1100 | ~2450 | Cc1cc2cc(-c3ccc(C4=NC5(CC5)C(=O)N4C[C@@H]4CCN(C(=O)C5CC5)C4)cc3C)ccc2o1 [compound 388, 6-{[(3R)-1-(Cyclopropylcarbonyl)pyrrolidin-3-yl]methyl}-5-[3-methyl-4-(2-methyl-1-benzofuran-5-yl)phenyl]-4,6-diazaspiro[2.4]hept-4-en-7-one] |
| 97 | 178 | > 10000 | 490 | 1100 | O=C(C1CC1)N1CC(CN2C(=O)C3(CC3)N=C2c2ccc(-c3ccc4sccc4c3)c(F)c2)C1 [compound 404, 5-[4-(1-Benzothiophen-5-yl)-3-fluorophenyl]-6-{[1-(cyclopropylcarbonyl)azetidin-3-yl]methyl}-4,6-diazaspiro[2.4]hept-4-en-7-one] |
| 99 | 170 | ~10000 | 331 | 132 | O=C(C1CC1)N1CC[C@@H](CN2C(=O)C3(CC3)N=C2c2ccc(-c3nc4ccccc4[nH]3)cc2F)C1 [compound 538, 5-[4-(1H-Benzimidazol-2-yl)-2-fluorophenyl]-6-{[(3R)-1-(cyclopropylcarbonyl)pyrrolidin-3-yl]methyl}-4,6-diazaspiro[2.4]hept-4-en-7-one] |
| 93 | 603 | > 10000 | 1170 | ~676 | COCc1nn(C)c2ccc(-c3ccc(C4=NC5(CC5)C(=O)N4CC4CN(C(=O)C5CC5)C4)c(C)c3)cc12 [compound 588, 6-{[1-(Cyclopropylcarbonyl)azetidin-3-yl]methyl}-5-{4-[3-(methoxymethyl)-1-methyl-1H-indazol-5-yl]-2-methylphenyl}-4,6-diazaspiro[2.4]hept-4-en-7-one] |
| 98 | 148 | > 10000 | 1020 | 372 | COCc1nn(C)c2ccc(-c3ccc(C4=NC5(CC5)C(=O)N4CC4CN(C(=O)C5CC5)C4)c(F)c3)cc12 [compound 608, 6-{[1-(Cyclopropylcarbonyl)azetidin-3-yl]methyl}-5-{2-fluoro-4-[3-(methoxymethyl)-1-methyl-01H-indazol-5-yl]phenyl}-4,6-diazaspiro[2.4]hept-4-en-7-one] |
| 90 | 708 | > 10000 | 1580 | 2090 | CC(C)N1CCC2(CC1)N=C(c1ccc(-c3ccc4[nH]ncc4c3)cc1)N(C[C@@H]1CCN(C(=O)C3CC3)C1)C2=O [compound 743, 3-{[(3R)-1-(Cyclopropylcarbonyl)pyrrolidin-3-yl]methyl}-2-[4-(1H-indazol-5-yl)phenyl]-8-(1-methylethyl)-1,3,8-triazaspiro[4.5]dec-1-en-4-one] |
| 107 | 135 | > 10000 | 646 | ~245 | CC(C)C(=O)N1CCC2(CC1)N=C(c1ccc(-c3ccc4[nH]ccc4c3)cc1)N(CC1CN(C(=O)C3CC3)C1)C2=O [compound 753, 3-{[1-(Cyclopropylcarbonyl)azetidin-3-yl]methyl}-2-[4-(1H-indol-5-yl)phenyl]-8-(2-methylpropanoyl)-1,3,8-triazaspiro[4.5]dec-1-en-4-one] |
| 107 | 229 | > 6170 | 631 | ~316 | COCCN1CCC2(CC1)N=C(c1ccc(-c3ccc4[nH]ccc4c3)cc1)N(CC1CN(C(=O)C3CC3)C1)C2=O [compound 755, 3-{[1-(Cyclopropylcarbonyl)azetidin-3-yl]methyl}-2-[4-(1H-indol-5-yl)phenyl]-8-triazaspiro[4.5]dec-1-en-4-one] |
| 104 | 158 | > 10000 | 1000 | 708 | O=C(C1CC1)N1CC(CN2C(=O)C3(CCN(CCO)CC3)N=C2c2ccc(-c3ccc4[nH]ccc4c3)cc2)C1 [compound 757, 3-{[1-(Cyclopropylcarbonyl)azetidin-3-yl]methyl}-8-(2-hydroxyethyl)-2-[4-(1H-indol-5-yl)phenyl]-1,3,8-triazaspiro[4.5]dec-1-en-4-one] |
